Source: patent US20230124087A1, “KV3 ENHANCERS FOR THE TREATMENT OF COGNITIVE DISORDERS” (Hoffmann-La Roche Inc., priority 2020, published 2023)
Where two headings read alike, the source gives them in different places.

Target: T1, Kv3.1 (Homo sapiens, UniProt P48547)
T1 construct: expressed in transfected cells
T1 sequence (P48547 1-511): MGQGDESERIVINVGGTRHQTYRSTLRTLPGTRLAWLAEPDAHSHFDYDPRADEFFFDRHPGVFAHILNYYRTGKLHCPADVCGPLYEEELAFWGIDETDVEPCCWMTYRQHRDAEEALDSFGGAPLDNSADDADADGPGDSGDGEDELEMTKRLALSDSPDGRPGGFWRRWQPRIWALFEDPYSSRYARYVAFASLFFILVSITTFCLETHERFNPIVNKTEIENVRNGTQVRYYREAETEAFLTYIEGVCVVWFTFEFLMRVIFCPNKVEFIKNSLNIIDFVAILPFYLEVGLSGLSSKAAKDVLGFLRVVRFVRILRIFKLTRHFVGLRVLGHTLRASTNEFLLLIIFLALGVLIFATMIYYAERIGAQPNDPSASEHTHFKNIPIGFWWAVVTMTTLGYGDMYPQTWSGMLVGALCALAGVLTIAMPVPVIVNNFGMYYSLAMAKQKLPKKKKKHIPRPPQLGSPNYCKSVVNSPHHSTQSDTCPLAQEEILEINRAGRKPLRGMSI
Assay: Kv3.1 automated patch clamp (Qube) cellular electrophysiology assay
Format: cell-based
Excerpt: In vitro, high-throughput cellular electrophysiology was employed to detect voltage-dependence of compounds in single concentration screening and IC50 determination for library and medicinal chemistry profiling compounds in 384 well plates.
HEK-293 cell lines stably expressing coding DNA for Kv3.1, 3.2, 3.3, and 3.4 were validated on an automated patch clamp (APC) platform, Qube from Sophion/Denmark. Cell cultures were maintained in DMEM cell growth media containing FBS and appropriate antibiotics at 37° C., 5% CO2 for a maximum of 20 passages. Intra- and extracellular (w. glucose) HEPES buffers containing various monovalent and divalent cations were adjusted to pH 7.2 and 7.4 respectively. Cells were harvested at 75% confluency and resuspended in extracellular buffer and added to wells. Negative pressure was applied to establish whole cell recording by APC.
Currents through activated channels were measured directly by APC by employing depolarization voltage steps. Baseline currents were established for the voltage-dependence protocols using a −80 mV holding potential and multiple test pulses at +10 mV or by 10 mV steps from −80 mV to +40 mV, respectively. Test compounds were added after baseline recordings followed by a 10 min incubation, and voltage-dependency protocol recordings. Data was corrected for baseline and leak currents (well based) and normalized for % potentiation (plate based). Two previously reported Kv3 positive modulators of varying potencies were used for run to run and plate to plate quality controls. A non-selective and potent positive modulator was used as a positive control. Percent potentiation was analyzed at −20 mV of the voltage-dependency protocol and voltage shift in channel activation was analyzed using the voltage step protocol from −80 mV to +40 mV. Selectivity was assessed against Kv3.2, Kv3.3, and Kv3.4 overexpressing cell lines using similar methods.

| EC50 (HEK-293 cell line stably expressing Kv3.1, automated patch clamp, 10 min incubation, read-out: EC50 Kv3.1) [µM] | Compound | EC50 [µM] |
| --- | --- | --- |
|  | Cc1ccc(Oc2ccc(-n3c(=O)[nH]c4cccnc43)cn2)cc1F [Example 35, 3-[6-(3-fluoro-4-methyl-phenoxy)-3-pyridyl]-1H-imidazo[4,5-b]pyridin-2-one] | 3.6 |
|  | Cc1ccc(Oc2ccc(-n3c(=O)[nH]c4cccnc43)cn2)c(F)c1 [Example 36, 3-[6-(2-fluoro-4-methyl-phenoxy)-3-pyridyl]-1H-imidazo[4,5-b]pyridin-2-one] | 4.3 |
|  | Cc1cc(C#N)ccc1Oc1ccc(-n2c(=O)[nH]c3cccnc32)cn1 [Example 37, 3-methyl-4-[[5-(2-oxo-1H-imidazo[4,5-b]pyridin-3-yl)-2-pyridyl]oxy]benzonitrile] | 6 |
|  | Cc1cc(C#N)cc(C)c1Oc1ccc(-n2c(=O)[nH]c3cccnc32)cn1 [Example 38, 3,5-dimethyl-4-[[5-(2-oxo-1H-imidazo[4,5-b]pyridin-3-yl)-2-pyridyl]oxy]benzonitrile] | 5.2 |
|  | COc1cc(C)ccc1Oc1ccc(-n2c(=O)[nH]c3cccnc32)cn1 [Example 39, 3-[6-(2-methoxy-4-methyl-phenoxy)-3-pyridyl]-1H-imidazo[4,5-b]pyridin-2-one] | 5 |
|  | N#Cc1ccc(Oc2ccc(-n3c(=O)[nH]c4cccnc43)cn2)c(C(F)(F)F)c1 [Example 40, 4-[[5-(2-oxo-1H-imidazo[4,5-b]pyridin-3-yl)-2-pyridyl]oxy]-3-(trifluoromethyl)benzonitrile] | 6.6 |
|  | COc1cc(Oc2ccc(-n3c(=O)[nH]c4cccnc43)cn2)cnc1C [Example 41, 3-[6-[(5-methoxy-6-methyl-3-pyridyl)oxy]-3-pyridyl]-1H-imidazo[4,5-b]pyridin-2-one] | 16.4 |
|  | Cc1ccc(Oc2ccc(-n3c(=O)[nH]c4cnccc43)cn2)cc1Cl [Example 42, 1-[6-(3-chloro-4-methyl-phenoxy)-3-pyridyl]-3H-imidazo[4,5-c]pyridin-2-one] | 10 |
|  | COc1cc(Oc2ccc(-n3c(=O)[nH]c4cncnc43)cn2)ccc1C [Example 43, 9-[6-(3-methoxy-4-methyl-phenoxy)-3-pyridyl]-7H-purin-8-one] | 7.4 |
|  | COc1cc(Oc2ncc(-n3c(=O)[nH]c4cnccc43)cc2F)ccc1C [Example 44, 1-[5-fluoro-6-(3-methoxy-4-methyl-phenoxy)-3-pyridyl]-3H-imidazo[4,5-c]pyridin-2-one] | 2.9 |
|  | COc1cc(Oc2ncc(-n3c(=O)[nH]c4cnccc43)cc2C)ccc1C [Example 45, 1-[5-methyl-6-(3-methoxy-4-methyl-phenoxy)-3-pyridyl]-3H-imidazo[4,5-c]pyridin-2-one] | 3.1 |
|  | COc1cc(Oc2ncc(-n3c(=O)[nH]c4cccnc43)cc2C)ccc1C [Example 46, 3-[6-(3-methoxy-4-methyl-phenoxy)-5-methyl-3-pyridyl]-1H-imidazo[4,5-b]pyridin-2-one] | 4 |
| 2.4 | Cc1ccc(Oc2ccc(-n3c(=O)[nH]c4cnccc43)cn2)cc1OC(F)(F)F [Example 47, 1-[6-[4-methyl-3-(trifluoromethoxy)phenoxy]-3-pyridyl]-3H-imidazo[4,5-c]pyridin-2-one] |  |
|  | COc1cc(Oc2ccc(-n3c(=O)[nH]c4nccnc43)cn2)ccc1C [Example 48, 3-[6-(3-methoxy-4-methyl-phenoxy)-3-pyridyl]-1H-imidazo[4,5-b]pyrazin-2-one] | 3.9 |
|  | CCc1cc(Oc2ccc(-n3c(=O)[nH]c4cccnc43)cn2)ccc1C#N [Example 49, 2-ethyl-4-[[5-(2-oxo-1H-imidazo[4,5-b]pyridin-3-yl)-2-pyridyl]oxy]benzonitrile] | 4.1 |
|  | Cc1ccc(Oc2ccc(-n3c(=O)[nH]c4cncnc43)cn2)cc1Cl [Example 50, 9-[6-(3-chloro-4-methyl-phenoxy)-3-pyridyl]-7H-purin-8-one] | 12.2 |
|  | CC(C)(C)c1cc(C#N)ccc1Oc1ccc(-n2c(=O)[nH]c3cccnc32)cc1F [Example 51, 3-tert-butyl-4-[2-fluoro-4-(2-oxo-1H-imidazo[4,5-b]pyridin-3-yl)phenoxy]benzonitrile] | 12.7 |
|  | CC(C)c1cc(C#N)ccc1O[C@H]1C[C@H](n2c(=O)[nH]c3cccnc32)C1 [Example 52, 3-isopropyl-4-[3-(2-oxo-1H-imidazo[4,5-b]pyridin-3-yl)cyclobutoxy]benzonitrile] | 17.4 |
|  | COc1cc(O[C@H]2C[C@H](n3c(=O)[nH]c4cnccc43)C2)ccc1C [Example 53, 1-[3-(3-methoxy-4-methyl-phenoxy)cyclobutyl]-3H-imidazo[4,5-c]pyridin-2-one] | 3.6 |
